Test results published in ChEMBL document CHEMBL1150631, “New chemical constituents of Euphorbia quinquecostata and absolute configuration assignment by a convenient Mosher ester procedure carried out in NMR tubes” (J Nat Prod, 2002).
In brackets after ≈: the same amount, converted by molar mass.

Assay: Inhibition of 12-O-tetradecanoylphorbol 13-acetate-induced transformation of mouse JB6 cells after 14 days by soft agar transformation assay
Format: functional, cell-based

**Q.** Which IC50 does the source give for `COc1ccc(/C=C/C=O)cc1OC` [3,4-DIMETHOXY CINNAMALDEHYDE] here?
**A.** Its IC50 is 2.3 µg/mL (≈ 12 µM).
